Test results published in ChEMBL document CHEMBL5108047 (J Med Chem, 2022).

Columns and labels:
[1] = target: T1, DNA polymerase alpha catalytic subunit (Homo sapiens, UniProt P09884); assay: Inhibition of human DNA polymerase alpha
T1 sequence (P09884 whole entry): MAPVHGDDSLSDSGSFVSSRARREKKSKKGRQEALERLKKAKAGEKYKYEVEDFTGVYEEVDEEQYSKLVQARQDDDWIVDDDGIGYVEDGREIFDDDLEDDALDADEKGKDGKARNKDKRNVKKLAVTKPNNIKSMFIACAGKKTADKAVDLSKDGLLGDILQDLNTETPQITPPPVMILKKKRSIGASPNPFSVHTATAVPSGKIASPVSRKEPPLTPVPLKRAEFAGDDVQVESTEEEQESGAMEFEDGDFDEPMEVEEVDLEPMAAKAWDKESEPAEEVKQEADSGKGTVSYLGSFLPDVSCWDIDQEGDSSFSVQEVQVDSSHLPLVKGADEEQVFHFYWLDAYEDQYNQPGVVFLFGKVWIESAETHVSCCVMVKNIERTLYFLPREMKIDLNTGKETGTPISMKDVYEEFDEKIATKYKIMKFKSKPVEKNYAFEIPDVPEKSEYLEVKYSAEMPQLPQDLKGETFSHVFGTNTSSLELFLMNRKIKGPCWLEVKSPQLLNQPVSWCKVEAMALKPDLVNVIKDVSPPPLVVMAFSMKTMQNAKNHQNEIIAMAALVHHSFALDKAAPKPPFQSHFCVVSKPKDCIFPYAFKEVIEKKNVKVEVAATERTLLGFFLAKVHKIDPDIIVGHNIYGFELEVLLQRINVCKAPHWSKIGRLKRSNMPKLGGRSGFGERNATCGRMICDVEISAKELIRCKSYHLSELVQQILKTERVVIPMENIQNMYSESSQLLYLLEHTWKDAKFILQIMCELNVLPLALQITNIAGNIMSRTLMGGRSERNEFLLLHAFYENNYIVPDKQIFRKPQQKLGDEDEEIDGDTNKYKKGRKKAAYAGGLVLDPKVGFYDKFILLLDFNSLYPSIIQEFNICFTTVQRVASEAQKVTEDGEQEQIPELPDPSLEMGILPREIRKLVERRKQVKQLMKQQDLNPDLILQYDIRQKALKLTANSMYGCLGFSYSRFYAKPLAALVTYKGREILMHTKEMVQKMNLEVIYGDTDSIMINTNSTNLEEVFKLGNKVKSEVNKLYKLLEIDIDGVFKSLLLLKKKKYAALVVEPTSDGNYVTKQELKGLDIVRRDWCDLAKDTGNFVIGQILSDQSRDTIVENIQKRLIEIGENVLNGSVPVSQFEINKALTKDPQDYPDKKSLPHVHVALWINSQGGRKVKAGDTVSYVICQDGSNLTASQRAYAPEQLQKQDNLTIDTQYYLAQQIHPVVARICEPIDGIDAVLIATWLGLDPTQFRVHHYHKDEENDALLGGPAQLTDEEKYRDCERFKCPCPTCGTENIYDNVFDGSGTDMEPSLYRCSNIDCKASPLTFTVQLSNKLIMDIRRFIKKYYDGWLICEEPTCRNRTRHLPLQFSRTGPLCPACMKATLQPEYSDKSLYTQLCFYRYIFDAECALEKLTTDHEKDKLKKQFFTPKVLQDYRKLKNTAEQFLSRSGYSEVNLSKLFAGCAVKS

[2] = target: T2, DNA polymerase subunit gamma-1 (Homo sapiens, UniProt P54098); assay: Inhibition of human DNA polymerase gamma
T2 sequence (P54098 whole entry): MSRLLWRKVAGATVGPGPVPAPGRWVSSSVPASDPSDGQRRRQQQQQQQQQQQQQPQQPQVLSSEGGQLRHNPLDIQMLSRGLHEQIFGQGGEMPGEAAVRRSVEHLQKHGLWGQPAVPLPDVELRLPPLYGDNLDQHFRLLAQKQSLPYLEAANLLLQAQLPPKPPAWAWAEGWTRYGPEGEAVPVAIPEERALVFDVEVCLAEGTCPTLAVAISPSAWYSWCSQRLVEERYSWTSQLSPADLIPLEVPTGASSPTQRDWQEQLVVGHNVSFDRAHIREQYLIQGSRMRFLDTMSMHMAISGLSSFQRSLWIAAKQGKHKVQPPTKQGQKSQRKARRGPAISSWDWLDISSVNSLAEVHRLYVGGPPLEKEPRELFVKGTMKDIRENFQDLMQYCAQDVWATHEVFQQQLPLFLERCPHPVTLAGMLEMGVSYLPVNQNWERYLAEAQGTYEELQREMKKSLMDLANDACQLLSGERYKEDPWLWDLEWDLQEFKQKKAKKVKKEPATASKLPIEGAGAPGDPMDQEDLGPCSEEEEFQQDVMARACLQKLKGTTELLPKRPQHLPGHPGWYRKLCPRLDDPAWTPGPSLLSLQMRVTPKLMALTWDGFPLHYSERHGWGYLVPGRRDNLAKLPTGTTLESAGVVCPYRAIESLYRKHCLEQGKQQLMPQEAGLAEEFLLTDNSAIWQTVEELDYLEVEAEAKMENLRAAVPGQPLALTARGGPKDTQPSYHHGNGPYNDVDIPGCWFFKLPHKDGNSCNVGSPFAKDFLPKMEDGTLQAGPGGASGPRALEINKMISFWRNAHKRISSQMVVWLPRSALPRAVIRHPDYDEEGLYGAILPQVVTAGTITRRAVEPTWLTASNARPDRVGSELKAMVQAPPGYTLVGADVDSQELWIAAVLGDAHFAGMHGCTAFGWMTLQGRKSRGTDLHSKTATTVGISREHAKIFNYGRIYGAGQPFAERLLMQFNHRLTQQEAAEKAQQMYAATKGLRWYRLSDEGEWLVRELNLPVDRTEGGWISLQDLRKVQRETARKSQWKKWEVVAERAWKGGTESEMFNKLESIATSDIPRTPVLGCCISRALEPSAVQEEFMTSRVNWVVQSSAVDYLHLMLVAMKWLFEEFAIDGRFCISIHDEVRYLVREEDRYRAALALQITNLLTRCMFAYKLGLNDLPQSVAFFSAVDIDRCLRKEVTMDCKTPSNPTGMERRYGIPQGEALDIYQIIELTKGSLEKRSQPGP

DNA polymerase theta = DNA polymerase theta (Homo sapiens, UniProt O75417); assay: Inhibition of DNA polymerase theta in LIG4 knock out HEK293T cells assessed as decrease in MMEJ-mediated DNA repair preincubated for 1 day followed by lentivirus solution addition for 24 hrs prior to media replacement with compound and measured after 96 hrs by flow cytometry based traffic-light reporter assay; format: cell-based
DNA polymerase theta, sequence (O75417 whole entry): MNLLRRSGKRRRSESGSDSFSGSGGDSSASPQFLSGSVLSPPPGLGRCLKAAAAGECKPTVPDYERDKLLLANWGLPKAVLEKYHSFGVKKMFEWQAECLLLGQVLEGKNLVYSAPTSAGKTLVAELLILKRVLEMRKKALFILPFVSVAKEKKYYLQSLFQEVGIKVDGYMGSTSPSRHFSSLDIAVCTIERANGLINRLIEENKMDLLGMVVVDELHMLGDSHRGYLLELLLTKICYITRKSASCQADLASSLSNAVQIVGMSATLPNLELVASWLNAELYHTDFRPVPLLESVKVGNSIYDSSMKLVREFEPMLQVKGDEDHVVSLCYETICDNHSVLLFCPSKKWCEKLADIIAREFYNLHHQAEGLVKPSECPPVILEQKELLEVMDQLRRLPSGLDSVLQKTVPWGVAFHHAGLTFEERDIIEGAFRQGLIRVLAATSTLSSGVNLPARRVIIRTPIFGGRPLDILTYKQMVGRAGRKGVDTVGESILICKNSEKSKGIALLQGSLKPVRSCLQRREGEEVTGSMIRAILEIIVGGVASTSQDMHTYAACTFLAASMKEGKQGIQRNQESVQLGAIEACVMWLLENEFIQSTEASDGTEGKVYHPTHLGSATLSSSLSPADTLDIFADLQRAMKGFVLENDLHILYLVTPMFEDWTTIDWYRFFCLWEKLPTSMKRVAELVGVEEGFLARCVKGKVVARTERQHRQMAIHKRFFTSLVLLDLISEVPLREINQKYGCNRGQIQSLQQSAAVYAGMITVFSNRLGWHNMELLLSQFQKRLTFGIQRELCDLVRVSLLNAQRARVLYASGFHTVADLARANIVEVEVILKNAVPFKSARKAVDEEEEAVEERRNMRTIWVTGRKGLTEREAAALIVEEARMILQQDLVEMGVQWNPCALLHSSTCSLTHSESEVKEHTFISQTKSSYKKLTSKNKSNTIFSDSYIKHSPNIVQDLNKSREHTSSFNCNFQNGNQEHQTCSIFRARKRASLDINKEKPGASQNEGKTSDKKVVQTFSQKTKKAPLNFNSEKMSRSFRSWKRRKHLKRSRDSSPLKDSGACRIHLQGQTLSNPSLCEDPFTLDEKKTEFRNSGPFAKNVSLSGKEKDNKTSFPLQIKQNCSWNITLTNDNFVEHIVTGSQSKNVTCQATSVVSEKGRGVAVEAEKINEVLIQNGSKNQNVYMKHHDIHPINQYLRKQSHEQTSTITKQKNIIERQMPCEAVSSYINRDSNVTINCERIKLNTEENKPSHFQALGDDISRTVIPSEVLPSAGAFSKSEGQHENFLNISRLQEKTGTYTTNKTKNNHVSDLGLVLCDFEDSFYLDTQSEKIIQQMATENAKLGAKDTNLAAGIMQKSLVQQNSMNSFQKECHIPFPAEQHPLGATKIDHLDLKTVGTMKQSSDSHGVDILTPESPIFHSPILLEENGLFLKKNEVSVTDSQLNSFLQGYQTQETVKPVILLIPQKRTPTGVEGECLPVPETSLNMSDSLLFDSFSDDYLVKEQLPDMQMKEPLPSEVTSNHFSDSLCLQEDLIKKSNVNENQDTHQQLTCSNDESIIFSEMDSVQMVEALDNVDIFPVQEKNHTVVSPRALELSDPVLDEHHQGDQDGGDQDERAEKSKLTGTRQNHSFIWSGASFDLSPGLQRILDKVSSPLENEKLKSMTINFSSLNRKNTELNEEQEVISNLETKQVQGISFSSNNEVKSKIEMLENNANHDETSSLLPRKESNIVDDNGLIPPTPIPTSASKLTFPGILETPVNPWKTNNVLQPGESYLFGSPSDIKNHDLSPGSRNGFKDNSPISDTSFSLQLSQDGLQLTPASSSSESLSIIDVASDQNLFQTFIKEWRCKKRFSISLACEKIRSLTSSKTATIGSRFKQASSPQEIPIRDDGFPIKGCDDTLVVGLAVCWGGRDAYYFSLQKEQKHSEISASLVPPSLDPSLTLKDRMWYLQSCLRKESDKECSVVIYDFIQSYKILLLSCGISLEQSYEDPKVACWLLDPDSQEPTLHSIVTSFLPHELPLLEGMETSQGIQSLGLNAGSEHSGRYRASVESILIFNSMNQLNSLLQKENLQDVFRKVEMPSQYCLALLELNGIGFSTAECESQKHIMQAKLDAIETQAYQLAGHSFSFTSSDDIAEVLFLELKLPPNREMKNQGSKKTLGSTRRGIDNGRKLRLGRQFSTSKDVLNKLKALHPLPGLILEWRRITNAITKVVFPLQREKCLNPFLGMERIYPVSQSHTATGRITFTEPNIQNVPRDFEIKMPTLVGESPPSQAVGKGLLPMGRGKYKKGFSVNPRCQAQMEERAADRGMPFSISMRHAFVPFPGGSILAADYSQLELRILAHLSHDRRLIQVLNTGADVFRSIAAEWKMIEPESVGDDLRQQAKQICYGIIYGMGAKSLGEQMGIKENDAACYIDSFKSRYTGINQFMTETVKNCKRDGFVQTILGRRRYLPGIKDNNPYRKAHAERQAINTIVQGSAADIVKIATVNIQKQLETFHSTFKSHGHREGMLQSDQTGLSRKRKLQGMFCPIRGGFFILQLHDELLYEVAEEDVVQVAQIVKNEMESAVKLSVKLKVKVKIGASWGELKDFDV

HCT-116 = assay: Antiproliferative activity against BRCA2 knock out human HCT-116 cells assessed as inhibition of cell growth incubated for 12 to 14 days with media replacement for every 3 or 4 days; format: functional, cell-based
[3] = Half-life in CD-1 mouse at 2.5 mg/kg, po or 2.5 mg/kg, iv measured upto 24 hrs by reverse phase LCMS analysis; format: ADME, organism-based; details: in vivo
[4] = Toxicity in CD-1 mouse xenografted with BRCA2 knock out human HCT-116 cells assessed as drug tolerance at 80 mg/kg, po administered twice a day for 21 days; format: organism-based; details: in vivo, 504 h, time 21 day
[5] = AUC in CD-1 nude mouse at 80 mg/kg, po administered twice daily and measured on day 1 by HPLC-MS analysis; format: ADME, organism-based; set-up: dose 80 mg/kg, time 1 day, route po; details: in vivo

Nc1ccc(C#CCN(C(=O)Cc2ncc(C(F)(F)F)cc2C(F)(F)F)c2ccc(F)cc2)nn1
IC50 [1]: > 100000 nM | IC50 [2]: > 100000 nM | IC50 (DNA polymerase theta): 940 nM | IC50 (HCT-116): 320 nM | t1/2 [3]: 24 min | Activity [4]: Non-Toxic | AUC at 24 h [5]: 32.6 µM·h
